Data published in paper PMC10693528, “A high-throughput metabolomics in vitro platform for the characterization of hepatotoxicity” (Cell Biology and Toxicology, 2023).
“And” between values parts separate entries of the source, which are not always exact repeats. Equal values may be shown once.

Tests used:
HepG2 cells [1] = test: Cell viability (ATP, CellTiter-Glo) in parallel with metabolomics experiments; conditions: Bezafibrate 1000 μM, 48 h, one value per experiment plate, n = 6
Procedure: (§1) HepG2 cells (ECACC, UK, maximum passage number 9) were maintained and grown on Dulbecco’s MEM media supplemented with 1% v/v of penicillin/streptomycin, L-glutamine (200 mM, 1% v/v), non-essential amino acids (100x, 1% v/v), and 10% FBS (PAN-Biotech, Aidenbach, Germany) in 75 cm^2 culture flasks (TPP, Switzerland). For cell passaging (~ 80% confluency) media was removed and cells were washed twice with pre-warmed calcium and magnesium free Dulbecco’s PBS (PAN-Biotech, Aidenbach, Germany). Trypsin was used for cell detachment. Then, 20 mL culture medium was added, and single-cell suspensions were obtained by passing the suspension through a Combitip (Eppendorf, Germany). A fraction of the cell suspension was then transferred to a new culture vessel. For experiments, 15,000 cells per well (passage 5-9) were seeded in 96-well flat-bottom plates (TPP, Switzerland) and incubated for 24 h for cell attachment (37 °C and 5% CO^2). Afterwards, culture media were exchanged, test substances applied, and plates incubated for 48 h (37 °C and 5% CO^2).
(§2) For each substance, one 96-well plate was set up with 6 replicates per concentration, 12 replicates for vehicle controls (yielding a final concentration of 0.5% DMSO in the well), 6 replicates for positive controls (Bezafibrate 1000 μM), and 6 replicates for blank controls (media without cells). To minimize potential evaporation, the outer rows and columns of the plate were omitted and filled with PBS instead. Reference samples prepared from lyophilized HepG2 cells were measured in parallel throughout the entire analytical process (technical replicates). […] Lyophilized HepG2 cells reference samples were used to account for variability between plates and in concentration series for linearity checks. After 48 h, the assays were stopped by washing the wells once with 100 μL 0.9% NaCl followed by snap freezing the plates on liquid nitrogen for 5 s. Plates were placed immediately on dry ice and 50 μL ice-cooled isopropanol 80% (v/v) were added to quench metabolism and precipitate proteins. Plates were stored at − 80 °C until LC/ MS analysis.

[2] = as above; conditions: human, HepG2 cells, Percentage of viability (ATP) compared to the vehicle control, Bezafibrate positive control, Bezafibrate 1000 μM, 48 h, one value per experiment plate, n = 6
Procedure: as §1, §2

HepG2 cells [3] = test: LC-MS/MS targeted intracellular metabolomics; type: cell-based, human; conditions: Suppl Fig 9; C3 (EC15 ATP), 48 h; Bezafibrate lines = Plates 1-6 in order
Procedure: Metabolite profiling of cells was performed directly in the same 96-well plate according to a standardized protocol described below. In order to prevent any interaction with the cell material, the automatic sampler was adjusted to pick up the sample from the supernatant at a specified depth avoiding the contact with the bottom of the plate.
After the initial quenching step (50 μL isopropanol 80%), additional 70 μL of isopropanol 80%, containing internal standards (methionine-D3, tryptophan-D5, arginine-13C6-15N4, Boc-Ala-Gly-Gly-Gly-OH, coenzyme Q1, coenzyme Q2, coenzyme Q4) were added to each well. The internal standards were used for quality control by visual inspection (signal intensity, peak shape, retention time); they were not used for normalization. Afterwards, plates were shaken for 5 min, 750 rpm at 20 °C, and placed for 30 s in the ultrasonic device. Then, the plates were centrifugated for 10 min, at 5485 g, 15 °C. Further, 2.5 μL of the extract were injected each for reversed-phase and hydrophilic interaction liquid chromatography followed by MS/MS detection (AB Sciex QTrap 6500+) using the positive and negative ionization mode. For reverse-phase high-performance liquid chromatography (RP-HPLC, Ascentis Express C18, 5 cm × 2.1 mm, 2.7 μm Supelco), gradient elution was performed with mobile phase A, water/methanol/0.1 M ammonium formate (1:1:0.02, w/w), and B, methyl-tert-butylether/2-propanol/methanol/0.1 M ammonium formate/formic acid (4:2:1:0.07:0.035, w/w) 5.9 min linear gradient: 0 min 100% A, 0.5 min 75% A, 5.9 min 10% A; followed by 0% A until 6.7 min; re-equilibration at 100% A until 7.7 min; flow rate 600 μL/min; column temperature 40 °C HILIC (ZIC-HILIC, 2.1 × 100 mm, 3.5 μm, Supelco) gradient elution was performed with mobile phase C, acetonitrile/water (99:1, v/v) with 0.2% (v) acetic acid, and D, 7 mM ammonium acetate with 0.2% (v) acetic acid (5.0 min linear gradient: 0 min 100% C, 5 min 10% C; followed by a linear gradient back to 100%C until 6.5 min; re-equilibration at 100% C until 7.5 min; flow rate 600 μL/min; column temperature 40 °C.). Two LC-MS systems with identical configuration were used for the analysis. Normalization to lyophilized reference samples (see below) was used to compensate for variation from between analytical batches. The efficiency of this normalization procedure was checked by principal component analysis (PCA), confirming that Pool samples from different analytical batches clustered together.
Reference samples derived from lyophilized untreated HepG2 cells (technical control samples) were measured in parallel throughout the entire analytical process. Data were normalized against the median of these lyophilized HepG2 cells reference samples, to give normalized ratios (performed for each sample per metabolite). This compensated for inter- and intra-instrumental variation. To correct for small differences in cell numbers within and between different treatment groups, data were also normalized to the within sample median, as described in detail by (Ramirez et al. [2018]). For intracellular metabolomic analysis, the median of each sample was calculated across all the 221 measured metabolites.
To generate metabolic profiles for the different treatments, heteroscedastic t test (Welch test) was applied to log-transformed normalized metabolite data to compare treated groups with their respective controls.
Principal component analysis (PCA) and hierarchical clustering (HCA) analyses were performed using R software environment (https://www.r-project.org/). PCA was conducted using the ropls package (Thévenot et al. [2015]) with log10-transformed input data and standard scaling. HCA was performed using the pvclust package (Suzuki et al. [2019]), (https://CRAN.R-project.org/package=pvclust). Input: log10(Ratio), clustering method: Ward D2, distance method: Manhattan, bootstrapping: 10000 times.

Structure (SMILES): CC(C)(Oc1ccc(CCNC(=O)c2ccc(Cl)cc2)cc1)C(=O)O [Bezafibrate]
- Percentage of viability (ATP) compared to the vehicle control, Bezafibrate positive control (HepG2 cells [1]): 84.1 ± 2.3% and 76.3 ± 3.2% and 75.0 ± 1.5% and 71.8 ± 2.8% and 78.0 ± 0.7% and 79.3 ± 2.2%
- viability at 48 h, 1000 μM [2]: 71 to 84%
- 5-Hydroxytryptophan level vs controls (HepG2 cells [3]): 0.84 and 0.77 and 0.76 and 0.85 and 0.74 and 0.65
- Carnitine level vs controls (HepG2 cells [3]): 0.72 and 0.74 and 0.84 and 0.77 and 0.80
- Ceramide (d18:1.C20:0) level vs controls (HepG2 cells [3]): 0.63 and 0.66 and 0.56 and 0.62 and 0.64 and 0.59
- Ceramide (d18:1.C24:1) level vs controls (HepG2 cells [3]): 0.66 and 0.91 and 0.98 and 0.80 and 0.85 and 0.68
- Ceramide (d18:1.C24:2) level vs controls (HepG2 cells [3]): 0.83 and 1.08 and 1.11 and 0.89 and 0.90 and 0.91
- Ceramide (d18:2.C24:1) level vs controls (HepG2 cells [3]): 0.56 and 0.62 and 0.68 and 0.89 and 0.63
- Choline plasmalogen (C36:4) level vs controls (HepG2 cells [3]): 0.65 and 0.80 and 0.68 and 0.69 and 0.73 and 0.72
- Choline plasmalogen (C36:5) level vs controls (HepG2 cells [3]): 0.78 and 0.90 and 0.80 and 0.83 and 0.82 and 0.79
- Creatine level vs controls (HepG2 cells [3]): 0.80 and 0.82 and 0.73 and 0.78 and 0.67 and 0.66
- Glycerol-3-phosphate level vs controls (HepG2 cells [3]): 0.68 and 0.43 and 0.45 and 0.54 and 0.44 and 0.39
- Hexanoylcarnitine level vs controls (HepG2 cells [3]): 0.65 and 0.54 and 0.50 and 0.59 and 0.62
- Ketoleucine level vs controls (HepG2 cells [3]): 0.73 and 0.72 and 0.74 and 0.77 and 1.10
- Lysophosphatidylcholine (C14:0) level vs controls (HepG2 cells [3]): 2.27 and 1.82 and 2.09 and 1.97 and 1.85 and 1.87
- Lysophosphatidylcholine (C16:0) level vs controls (HepG2 cells [3]): 1.86 and 1.92 and 1.98 and 2.08 and 1.93 and 2.14
- Lysophosphatidylcholine (C16:1) level vs controls (HepG2 cells [3]): 1.95 and 2.13 and 2.01 and 2.17 and 1.86 and 1.72
- Lysophosphatidylcholine (C20:4) level vs controls (HepG2 cells [3]): 1.22 and 1.67 and 1.47 and 1.90 and 1.86 and 1.44
- Lysophosphatidylcholine (C24:0) level vs controls (HepG2 cells [3]): 1.01 and 1.18 and 1.11 and 1.20 and 1.21 and 1.29
- Lysophosphatidylcholine (C24:1) level vs controls (HepG2 cells [3]): 1.10 and 1.03 and 1.13 and 1.26 and 1.12
- Lysophosphatidylethanolamine (C16:0) level vs controls (HepG2 cells [3]): 2.47 and 2.37 and 2.23 and 2.12 and 2.10 and 2.19
- Lysophosphatidylethanolamine (C18:0) level vs controls (HepG2 cells [3]): 2.21 and 2.07 and 1.76 and 1.77 and 2.04
- Lysophosphatidylethanolamine (C18:1) level vs controls (HepG2 cells [3]): 2.45 and 2.31 and 1.97 and 2.19 and 2.11 and 2.16
- N-Acetylaspartate level vs controls (HepG2 cells [3]): 1.54 and 1.49 and 1.66 and 1.48 and 1.41 and 1.25
- Pantothenic acid level vs controls (HepG2 cells [3]): 0.68 and 0.77 and 0.59 and 0.72 and 0.70 and 0.76
- Phosphatidylcholine (C32:0) level vs controls (HepG2 cells [3]): 0.82 and 0.70 and 0.79 and 0.88 and 0.83 and 0.76
- Phosphatidylcholine (C34:1) level vs controls (HepG2 cells [3]): 0.83 and 0.75 and 0.78 and 0.82 and 0.74
- Phosphatidylcholine (C34:3) level vs controls (HepG2 cells [3]): 1.02 and 1.18 and 1.17 and 1.09 and 1.15 and 1.04
- Phosphatidylcholine (C36:1) level vs controls (HepG2 cells [3]): 0.86 and 0.88 and 0.73 and 0.84 and 0.79 and 0.90
- Phosphatidylcholine (C36:2) level vs controls (HepG2 cells [3]): 0.66 and 0.71 and 0.62 and 0.69 and 0.65
- Phosphatidylcholine (C36:3) level vs controls (HepG2 cells [3]): 0.90 and 1.03 and 0.84 and 0.96 and 0.97 and 0.89
- Phosphatidylcholine (C36:4) level vs controls (HepG2 cells [3]): 1.00 and 0.93 and 0.81 and 0.98 and 0.95 and 0.94
- Phosphatidylcholine (C36:5) level vs controls (HepG2 cells [3]): 0.78 and 0.81 and 0.63 and 0.76 and 0.72 and 0.75
- Phosphatidylethanolamine (C36:3) level vs controls (HepG2 cells [3]): 0.90 and 0.87 and 0.84
- Phosphatidylethanolamine (C38:3) level vs controls (HepG2 cells [3]): 0.72 and 0.70 and 0.64 and 0.75 and 0.68 and 0.66
- Phosphatidylethanolamine (C38:5) level vs controls (HepG2 cells [3]): 0.90 and 1.00 and 0.86 and 0.98 and 0.87
- Phosphatidylethanolamine (C38:6) level vs controls (HepG2 cells [3]): 0.92 and 0.91 and 0.95 and 1.01 and 0.98
- Phosphatidylethanolamine (C40:7) level vs controls (HepG2 cells [3]): 0.79 and 0.81 and 0.75 and 0.88 and 0.82
- Phosphocholine level vs controls (HepG2 cells [3]): 0.78 and 0.69 and 0.56 and 0.63
- Propionylcarnitine level vs controls (HepG2 cells [3]): 0.66 and 0.78 and 0.40 and 0.58 and 0.54 and 0.57
- S-Adenosylhomocysteine level vs controls (HepG2 cells [3]): 0.92 and 0.98 and 0.70 and 0.93 and 0.78 and 0.79
- Sphingomyelin (d32:2) level vs controls (HepG2 cells [3]): 0.49 and 0.71 and 0.69 and 0.75 and 0.59 and 0.78
- Sphingomyelin (d33:1) level vs controls (HepG2 cells [3]): 1.19 and 1.34 and 1.15 and 1.32 and 1.18 and 1.20
- Sphingomyelin (d34:0) level vs controls (HepG2 cells [3]): 0.96 and 1.09 and 1.25 and 1.15 and 1.11
- Sphingomyelin (d35:1) level vs controls (HepG2 cells [3]): 0.86 and 0.95 and 0.88 and 0.85 and 0.92
- Sphingomyelin (d36:1) level vs controls (HepG2 cells [3]): 0.86 and 0.96 and 0.90 and 0.82 and 0.84
- Sphingomyelin (d36:2) level vs controls (HepG2 cells [3]): 0.73 and 0.90 and 0.85 and 0.87 and 0.88
- Sphingomyelin (d37:1) level vs controls (HepG2 cells [3]): 0.70 and 0.80 and 0.79 and 0.76
- Sphingomyelin (d38:1) level vs controls (HepG2 cells [3]): 0.88 and 0.84 and 0.85 and 0.87 and 0.91
- Sphingomyelin (d38:2) level vs controls (HepG2 cells [3]): 0.61 and 0.66 and 0.64 and 0.67 and 0.71
- Sphingomyelin (d39:1) level vs controls (HepG2 cells [3]): 0.77 and 0.83 and 0.87 and 0.81 and 0.86
- Sphingomyelin (d40:2) level vs controls (HepG2 cells [3]): 0.73 and 0.83 and 0.81 and 0.87 and 0.78 and 0.84
- Sphingomyelin (d41:2) level vs controls (HepG2 cells [3]): 0.78 and 0.79 and 0.82 and 0.88 and 0.77 and 0.80
- Sphingomyelin (d42:2) level vs controls (HepG2 cells [3]): 0.86 and 0.95 and 0.81 and 0.98 and 0.89 and 0.91
- Taurine level vs controls (HepG2 cells [3]): 0.93 and 0.92 and 0.68 and 0.90 and 0.88
- Triacylglycerol (C34:1.C18:3) level vs controls (HepG2 cells [3]): 1.57 and 2.06 and 2.37 and 1.58 and 1.93 and 2.00
- Triacylglycerol (C34:2.C18:0) level vs controls (HepG2 cells [3]): 1.63 and 1.54 and 1.78 and 1.17 and 1.31 and 1.39
- Triacylglycerol (C34:2.C18:1) level vs controls (HepG2 cells [3]): 1.40 and 1.62 and 1.81 and 1.26 and 1.79 and 1.43
- Triacylglycerol (C36:4.C16:0) level vs controls (HepG2 cells [3]): 1.74 and 2.34 and 2.73 and 1.73 and 1.97 and 2.11
- Triacylglycerol (C36:4.C18:0) level vs controls (HepG2 cells [3]): 1.72 and 1.82 and 2.28 and 2.15 and 2.38 and 2.26
